Source: patent US7851474B2, “Dipiperazinyl ketones and related analogues” (Neurogen Corporation, priority 2005, dated 2010)

The compounds below were run against T1, chimeric human H3 receptor (Homo sapiens, UniProt Q9Y5N1, E19D) (assay: Chimeric human H3 receptor screening GTP binding assay (inhibition of histamine-stimulated GTP-gamma35S binding, Example 8)). Details: 1 h; assay described in Example 8; symbol + in column headed Ki of Table II; read-out: percent inhibition of agonist-induced GTP-gammaS binding to H3.
T1 construct: made in house; host or cells: Sf9 insect cells (baculovirus infection); P2 membrane preparation
T1 sequence (Q9Y5N1 with tags, fused parts or gaps E19D): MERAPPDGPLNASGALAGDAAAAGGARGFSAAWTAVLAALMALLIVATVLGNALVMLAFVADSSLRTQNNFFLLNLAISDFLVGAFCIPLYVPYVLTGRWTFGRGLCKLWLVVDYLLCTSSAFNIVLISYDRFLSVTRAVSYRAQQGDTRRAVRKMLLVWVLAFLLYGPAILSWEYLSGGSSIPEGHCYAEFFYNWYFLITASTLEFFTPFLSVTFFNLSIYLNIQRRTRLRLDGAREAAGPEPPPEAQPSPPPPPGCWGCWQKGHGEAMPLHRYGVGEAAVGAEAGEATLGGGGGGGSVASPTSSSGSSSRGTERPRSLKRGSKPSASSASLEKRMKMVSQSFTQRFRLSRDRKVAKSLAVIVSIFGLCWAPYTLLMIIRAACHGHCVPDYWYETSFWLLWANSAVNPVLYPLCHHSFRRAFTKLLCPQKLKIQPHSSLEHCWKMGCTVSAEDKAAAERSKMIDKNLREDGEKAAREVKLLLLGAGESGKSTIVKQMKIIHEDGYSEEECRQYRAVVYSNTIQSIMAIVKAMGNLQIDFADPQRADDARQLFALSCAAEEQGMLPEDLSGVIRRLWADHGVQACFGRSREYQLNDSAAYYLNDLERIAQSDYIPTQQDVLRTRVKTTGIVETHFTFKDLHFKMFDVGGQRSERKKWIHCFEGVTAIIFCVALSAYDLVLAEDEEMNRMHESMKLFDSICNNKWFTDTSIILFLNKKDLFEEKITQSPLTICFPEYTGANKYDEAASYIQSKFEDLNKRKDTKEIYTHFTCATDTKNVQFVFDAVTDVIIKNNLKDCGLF
Format: biochemical
Description: This Example illustrates a representative screening assay for evaluating inhibition of histamine-stimulated GTP-gamma^35S binding. Such GTP binding activity can be used to identify H3 antagonists and inverse agonists. A compound analyzed in this assay is referred to herein as a “test compound,” and the initial identification of antagonists and inverse agonists is performed using a test compound concentration of 4 μM.
Four independent baculoviral stocks (one directing the expression of the chimeric human H3 receptor and three directing the expression of each of the three subunits of a heterotrimeric G-protein) are used to infect a culture of Sf9 cells as described above. P2 membranes are prepared as described above, and are resuspended by Dounce homogenization (tight pestle) in GTP binding assay buffer (50 mM Tris pH 7.4, 120 mM NaCl, 5 mM MgCl2, 2 mM EGTA, 1 mg/ml BSA, 0.2 mg/ml bacitracin, 0.02 mg/ml aprotinin, 0.01 mg/ml saponin, 10 μM GDP) and added to assay tubes at a concentration of 35 μg protein/reaction tube. Non-radiolabeled test compounds are added to separate reactions at a concentration of 4 μM along with 1 μM histamine (agonist). Reactions are initiated by the addition of 125 pM GTP-gamma^35S with a final assay volume of 0.20 ml.
After a 60-min incubation at room temperature, reactions are terminated by vacuum filtration over GF/C filters (pre-soaked in 50 mM Tris pH 7.4, 120 mM NaCl plus 0.1% BSA) followed by washing with ice-cold buffer (50 mM Tris pH 7.4, 120 mM NaCl). The amount of receptor-bound (and thereby membrane-bound) GTP-gamma^35S is determined by measuring the bound radioactivity, preferably by liquid scintillation spectrometry of the washed filters. Non-specific binding is determined using 10 uM GTP-gammaS and typically represents less than 5 percent of total binding. After subtraction of non-specific binding, data is expressed as percent inhibition of 1 μM histamine signal.
Neutral antagonists are those test compounds that reduce the histamine-stimulated GTP binding activity towards, but not below, baseline levels. In contrast, in the absence of added histamine, inverse agonists reduce the GTP binding activity of the receptor-containing membranes below baseline. Any test compound that elevates GTP binding activity above baseline in the absence of added histamine in this assay is defined as having agonist activity.

Question: Which inhibition at 4 µM does the source give for `O=C(CN1CCN(C(=O)c2ccccc2Cc2ccccc2)CC1)N1CCN(C2CCC2)CC1` [Compound 270, 1-(2-benzylbenzoyl)-4-[2-(4-cyclobutylpiperazin-1-yl)-2-oxoethyl]piperazine] here?
Answer: > 90%

Question: With `COc1ccc(Br)c(C(=O)N2CCN(CC(=O)N3CCN(C4CCC4)CC3)CC2)c1` [Compound 271, 1-(2-bromo-5-methoxybenzoyl)-4-[2-(4-cyclobutylpiperazin-1-yl)-2-oxoethyl]piperazine] as the compound, how does the inhibition at 4 µM read?
Answer: > 90%

Question: With `CCCCOc1ccccc1C(=O)N1CCN(CC(=O)N2CCN(C3CCC3)CC2)CC1` [Compound 272, 1-(2-butoxybenzoyl)-4-[2-(4-cyclobutylpiperazin-1-yl)-2-oxoethyl]piperazine] as the compound, how does the inhibition at 4 µM read?
Answer: > 90%

Question: With `O=C(CN1CCN(C(=O)c2c(F)cccc2Cl)CC1)N1CCN(C2CCC2)CC1` [Compound 274, 1-(2-chloro-6-fluorobenzoyl)-4-[2-(4-cyclobutylpiperazin-1-yl)-2-oxoethyl]piperazine] as the compound, how does the inhibition at 4 µM read?
Answer: > 90%

Question: For `COc1cc(C(=O)N2CCN(CC(=O)N3CCN(C4CCC4)CC3)CC2)cc(Cl)n1` [Compound 275, 1-(2-chloro-6-methoxyisonicotinoyl)-4-[2-(4-cyclobutylpiperazin-1-yl)-2-oxoethyl]piperazine], which inhibition at 4 µM is on record?
Answer: > 90%

Question: With `Cc1cc(C(=O)N2CCN(CC(=O)N3CCN(C4CCC4)CC3)CC2)cc(Cl)n1` [Compound 276, 1-(2-chloro-6-methylisonicotinoyl)-4-[2-(4-cyclobutylpiperazin-1-yl)-2-oxoethyl]piperazine] as the compound, how does the inhibition at 4 µM read?
Answer: > 90%

Question: For `O=C(CN1CCN(C(=O)c2ccccc2Cl)CC1)N1CCN(C2CCC2)CC1` [Compound 277, 1-(2-chlorobenzoyl)-4-[2-(4-cyclobutylpiperazin-1-yl)-2-oxoethyl]piperazine], which inhibition at 4 µM is on record?
Answer: > 90%

Question: How did the inhibition at 4 µM turn out when `O=C(CN1CCN(C(=O)c2ccnc(Cl)c2)CC1)N1CCN(C2CCC2)CC1` [Compound 279, 1-(2-chloroisonicotinoyl)-4-[2-(4-cyclobutylpiperazin-1-yl)-2-oxoethyl]piperazine] was run?
Answer: > 90%

Question: For `COc1ccc(Br)c(OC)c1C(=O)N1CCN(CC(=O)N2CCN(C3CCC3)CC2)CC1` [Compound 290, 1-(3-bromo-2,6-dimethoxybenzoyl)-4-[2-(4-cyclobutylpiperazin-1-yl)-2-oxoethyl]piperazine], which inhibition at 4 µM is on record?
Answer: > 90%

Question: `O=C(CN1CCN(C(=O)c2ccc(F)c(Br)c2)CC1)N1CCN(C2CCC2)CC1` [Compound 291, 1-(3-bromo-4-fluorobenzoyl)-4-[2-(4-cyclobutylpiperazin-1-yl)-2-oxoethyl]piperazine] was tested. Which inhibition at 4 µM did it give?
Answer: > 90%

Question: With `Cc1ccc(C(=O)N2CCN(CC(=O)N3CCN(C4CCC4)CC3)CC2)cc1Br` [Compound 292, 1-(3-bromo-4-methylbenzoyl)-4-[2-(4-cyclobutylpiperazin-1-yl)-2-oxoethyl]piperazine] as the compound, how does the inhibition at 4 µM read?
Answer: > 90%

Question: `COc1ccc(Cl)c(OC)c1C(=O)N1CCN(CC(=O)N2CCN(C3CCC3)CC2)CC1` [Compound 294, 1-(3-chloro-2,6-dimethoxybenzoyl)-4-[2-(4-cyclobutylpiperazin-1-yl)-2-oxoethyl]piperazine] was tested. Which inhibition at 4 µM did it give?
Answer: > 90%

Question: With `O=C(CN1CCN(C(=O)c2ccc(F)c(Cl)c2)CC1)N1CCN(C2CCC2)CC1` [Compound 296, 1-(3-chloro-4-fluorobenzoyl)-4-[2-(4-cyclobutylpiperazin-1-yl)-2-oxoethyl]piperazine] as the compound, how does the inhibition at 4 µM read?
Answer: > 90%

Question: Which inhibition at 4 µM does the source give for `Cc1ccc(C(=O)N2CCN(CC(=O)N3CCN(C4CCC4)CC3)CC2)cc1Cl` [Compound 298, 1-(3-chloro-4-methylbenzoyl)-4-[2-(4-cyclobutylpiperazin-1-yl)-2-oxoethyl]piperazine] here?
Answer: > 90%

Question: How did the inhibition at 4 µM turn out when `O=C(CN1CCN(C(=O)c2cccc(Cl)c2)CC1)N1CCN(C2CCC2)CC1` [Compound 299, 1-(3-chlorobenzoyl)-4-[2-(4-cyclobutylpiperazin-1-yl)-2-oxoethyl]piperazine] was run?
Answer: > 90%

Question: For `CCCCOc1ccc(C(=O)N2CCN(CC(=O)N3CCN(C4CCC4)CC3)CC2)cc1` [Compound 340, 1-(4-butoxybenzoyl)-4-[2-(4-cyclobutylpiperazin-1-yl)-2-oxoethyl]piperazine], which inhibition at 4 µM is on record?
Answer: > 90%

Question: Which inhibition at 4 µM does the source give for `COc1cc(Cl)ccc1C(=O)N1CCN(CC(=O)N2CCN(C3CCC3)CC2)CC1` [Compound 342, 1-(4-chloro-2-methoxybenzoyl)-4-[2-(4-cyclobutylpiperazin-1-yl)-2-oxoethyl]piperazine] here?
Answer: > 90%

Question: `Cc1cc(C(=O)N2CCN(CC(=O)N3CCN(C4CCC4)CC3)CC2)ccc1Cl` [Compound 348, 1-(4-chloro-3-methylbenzoyl)-4-[2-(4-cyclobutylpiperazin-1-yl)-2-oxoethyl]piperazine] was tested. Which inhibition at 4 µM did it give?
Answer: > 90%

Question: Which inhibition at 4 µM does the source give for `O=C(CN1CCN(C(=O)c2ccc(Cl)cc2)CC1)N1CCN(C2CCC2)CC1` [Compound 354, 1-(4-chlorobenzoyl)-4-[2-(4-cyclobutylpiperazin-1-yl)-2-oxoethyl]piperazine] here?
Answer: > 90%

Question: How did the inhibition at 4 µM turn out when `COc1ccc(Cl)cc1C(=O)N1CCN(CC(=O)N2CCN(C3CCC3)CC2)CC1` [Compound 364, 1-(5-chloro-2-methoxybenzoyl)-4-[2-(4-cyclobutylpiperazin-1-yl)-2-oxoethyl]piperazine] was run?
Answer: > 90%

Question: `O=C(CN1CCN(C(=O)c2ccccc2-c2ccccc2)CC1)N1CCN(C2CCC2)CC1` [Compound 374, 1-(biphenyl-2-ylcarbonyl)-4-[2-(4-cyclobutylpiperazin-1-yl)-2-oxoethyl]piperazine] was tested. Which inhibition at 4 µM did it give?
Answer: > 90%

Question: `O=C(Cc1ccc(-c2ccccc2)cc1)N1CCN(CC(=O)N2CCN(C3CCC3)CC2)CC1` [Compound 375, 1-(biphenyl-4-ylacetyl)-4-[2-(4-cyclobutylpiperazin-1-yl)-2-oxoethyl]piperazine] was tested. Which inhibition at 4 µM did it give?
Answer: > 90%

Question: How did the inhibition at 4 µM turn out when `O=C(CN1CCN(C(=O)c2ccc(-c3ccccc3)cc2)CC1)N1CCN(C2CCC2)CC1` [Compound 376, 1-(biphenyl-4-ylcarbonyl)-4-[2-(4-cyclobutylpiperazin-1-yl)-2-oxoethyl]piperazine] was run?
Answer: > 90%

Question: For `Cc1cc(C(=O)N2CCN(CC(=O)N3CCN(C4CCC4)CC3)CC2)n(C(C)(C)C)n1` [Compound 377, 1-[(1-tert-butyl-3-methyl-1H-pyrazol-5-yl)carbonyl]-4-[2-(4-cyclobutylpiperazin-1-yl)-2-oxoethyl]piperazine], which inhibition at 4 µM is on record?
Answer: > 90%

Question: `O=C(Cc1ccc(F)cc1Cl)N1CCN(CC(=O)N2CCN(C3CCC3)CC2)CC1` [Compound 381, 1-[(2-chloro-4-fluorophenyl)acetyl]-4-[2-(4-cyclobutylpiperazin-1-yl)-2-oxoethyl]piperazine] was tested. Which inhibition at 4 µM did it give?
Answer: > 90%

Question: With `O=C(COc1ccccc1Cl)N1CCN(CC(=O)N2CCN(C3CCC3)CC2)CC1` [Compound 383, 1-[(2-chlorophenoxy)acetyl]-4-[2-(4-cyclobutylpiperazin-1-yl)-2-oxoethyl]piperazine] as the compound, how does the inhibition at 4 µM read?
Answer: > 90%

Question: Which inhibition at 4 µM does the source give for `O=C(Cc1ccccc1Cl)N1CCN(CC(=O)N2CCN(C3CCC3)CC2)CC1` [Compound 384, 1-[(2-chlorophenyl)acetyl]-4-[2-(4-cyclobutylpiperazin-1-yl)-2-oxoethyl]piperazine] here?
Answer: > 90%

Question: How did the inhibition at 4 µM turn out when `O=C(/C=C/c1ccc2c(c1)OCO2)N1CCN(CC(=O)N2CCN(C3CCC3)CC2)CC1` [Compound 385, 1-[(2E)-3-(1,3-benzodioxol-5-yl)prop-2-enoyl]-4-[2-(4-cyclobutylpiperazin-1-yl)-2-oxoethyl]piperazine] was run?
Answer: > 90%
